Laboratory results published in ChEMBL document CHEMBL2074428, “New alpha(1)-adrenoceptor antagonists derived from the antipsychotic sertindole - carbon-11 labelling and pet examination of brain uptake in the cynomolgus monkey” (Nucl Med Biol, 2004).

Target: ATP-dependent translocase ABCB1 (Homo sapiens, UniProt P08183)
Experiment: TP_TRANSPORTER: transepithelial transport in Caco2 cells
Assay type: functional, cell-based
Conditions: caco-2

Sequence of ATP-dependent translocase ABCB1 (P08183 whole entry): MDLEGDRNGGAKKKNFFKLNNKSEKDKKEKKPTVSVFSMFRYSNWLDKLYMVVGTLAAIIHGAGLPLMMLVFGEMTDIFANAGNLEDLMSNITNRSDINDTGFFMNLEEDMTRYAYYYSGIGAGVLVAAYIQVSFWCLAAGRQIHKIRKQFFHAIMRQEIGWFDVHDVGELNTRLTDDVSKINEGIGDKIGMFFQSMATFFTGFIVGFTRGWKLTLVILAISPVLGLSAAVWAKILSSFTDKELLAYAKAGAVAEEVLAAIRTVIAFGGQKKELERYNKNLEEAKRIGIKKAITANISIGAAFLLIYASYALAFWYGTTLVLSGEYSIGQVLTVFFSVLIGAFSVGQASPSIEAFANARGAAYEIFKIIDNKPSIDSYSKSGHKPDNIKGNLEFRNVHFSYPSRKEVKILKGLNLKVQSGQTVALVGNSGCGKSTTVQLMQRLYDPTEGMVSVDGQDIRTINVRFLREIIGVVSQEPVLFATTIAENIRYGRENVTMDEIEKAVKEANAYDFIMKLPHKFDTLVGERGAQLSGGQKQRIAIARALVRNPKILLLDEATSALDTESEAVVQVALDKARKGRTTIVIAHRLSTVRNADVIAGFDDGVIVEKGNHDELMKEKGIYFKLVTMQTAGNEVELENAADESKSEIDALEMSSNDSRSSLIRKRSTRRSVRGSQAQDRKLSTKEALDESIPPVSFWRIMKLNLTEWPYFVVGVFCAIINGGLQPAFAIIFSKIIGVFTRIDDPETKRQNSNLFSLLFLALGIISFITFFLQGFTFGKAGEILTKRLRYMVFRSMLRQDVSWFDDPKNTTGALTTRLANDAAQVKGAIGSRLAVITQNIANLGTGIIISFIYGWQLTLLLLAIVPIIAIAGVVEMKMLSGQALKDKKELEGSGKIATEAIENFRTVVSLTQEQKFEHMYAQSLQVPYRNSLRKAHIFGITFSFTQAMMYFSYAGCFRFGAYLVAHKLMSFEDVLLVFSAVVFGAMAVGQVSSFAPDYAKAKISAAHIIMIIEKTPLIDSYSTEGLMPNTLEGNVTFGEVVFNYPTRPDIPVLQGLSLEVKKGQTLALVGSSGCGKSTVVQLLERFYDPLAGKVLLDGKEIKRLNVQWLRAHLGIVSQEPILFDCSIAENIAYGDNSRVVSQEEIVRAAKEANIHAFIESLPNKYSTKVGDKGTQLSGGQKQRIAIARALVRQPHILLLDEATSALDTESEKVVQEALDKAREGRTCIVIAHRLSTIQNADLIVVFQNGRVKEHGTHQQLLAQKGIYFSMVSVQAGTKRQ

SMILES | Activity
[11CH3]n1cc(-c2ccc3c(c2)c(C2CCN(CCN4CCNC4=O)CC2)cn3-c2ccc(F)cc2)nn1 | substrate [+]
[11CH3]n1nnc(-c2ccc3c(c2)c(C2CCN(CCN4CCNC4=O)CC2)cn3-c2ccc(F)cc2)n1 | substrate [+]
